In patent US10919937B2, “Bicyclic peptide ligands and uses thereof” (BicycleTx Limited, priority 2018, dated 2021):
*1 amine or outer side, *2 acyl side, *3 side chain or, on linkers, in order; H or OH if unused. Where a SMILES comes first, the peptide text is derived from it. Bridges are numbered along the chain shown (N, C = ends). [ ]: non-standard residue; d: D form. X11 = O=C(C[*:1])N1CCN(c2ccc(-c3nc(-c4ccc(N5CCN(C(=O)C[*:2])CC5)cc4)nc(-c4ccc(N5CCN(C(=O)C[*:3])CC5)cc4)n3)cc2)CC1; X14 = CC(C)(C)[C@H](N[*:3])C(=O)C[C@@H](CSCc1ccc(-c2nc(-c3ccc(C[*:1])cc3)nc(-c3ccc(C[*:2])cc3)n2)cc1)C(N)=O; X10 = O=C(C[*:1])N1CCC(N2CCN(c3nc(N4CCN(C5CCN(C(=O)C[*:2])CC5)CC4)nc(N4CCN(C5CCN([*:3])CC5)CC4)n3)CC2)CC1; X12 = CC(C)(C)[C@H](N[*:3])C(=O)C[C@@H](CSCc1ccc(CN(Cc2ccc(C[*:1])cc2)Cc2ccc(C[*:2])cc2)cc1)C(N)=O; X6 = O=C(C[*:1])N1Cc2cccc(c2)CN(C(=O)C[*:2])Cc2cccc(c2)CN(C(=O)C[*:3])Cc2cccc(c2)C1; X3 = CC(C)(C)[C@H](N[*:1])C(=O)C[C@@H](CSCc1ccc(C(=O)[*:2])cc1)C(N)=O; X1 = c1cc(-c2nc(-c3ccc(C[*:2])cc3)nc(-c3ccc(C[*:3])cc3)n2)ccc1C[*:1]; X4 = O=C(c1ccc(C[*:1])cc1)N1CN(C(=O)c2ccc(C[*:2])cc2)CN([*:3])C1; X9 = CC(C)(C)[C@H](N[*:1])C(=O)C[C@@H](CSCC(=O)[*:2])C(N)=O; 1Nal = N[C@@H](Cc1cccc2ccccc12)C(=O)O; TBMB = c1c(C[*:1])cc(C[*:3])cc1C[*:2]; Tle = CC(C)(C)[C@H](N)C(=O)O

Molecular target: CAIX (Homo sapiens, UniProt Q16790)
Assay: CAIX Competition Binding Assay (competition fluorescence polarization)
Settings: not given
Method: CAIX Competition Binding Assay. Affinity of the peptides of the invention for human CAIX (Ki) is determined using a competition fluorescence polarization assay analogous to that described in Dubois et al. (2011) Radiotherapy and Oncology 99(3), 424-43 using A-(CAECWIDGWVPC)-A-Sar6-K(Fl), (SEQ ID NO: 11), as the fluorescent ligand.
Compounds described as “B” have a K, equal to or greater than 0.5 μM and less than 1 μM. Compounds described as “C” have a K, equal to or greater than 1 μM and less than 10 μM. Compounds described as “D” have a K, equal to or greater than 10 μM.

Row | SMILES | Ki [nM]
1 | CC(=O)N[C@H]1CSCc2cc3cc(c2)CSC[C@@H](C(N)=O)NC(=O)[C@@H]2CCCN2C(=O)[C@H](C(C)C)NC(=O)[C@H](Cc2c[nH]c4ccccc24)NC(=O)CNC(=O)[C@H](CC(=O)O)NC(=O)[C@H](C(C)C)NC(=O)[C@H](Cc2c[nH]c4ccccc24)NC(=O)[C@H](Cc2ccc(cc2)OC3)NC(=O)[C@H](CCC(=O)O)NC(=O)[C@H]([C@@H](C)O)NC1=O [I-108] (Ac-CTEYWVDGWVPC-NH2; linker 1-4-12 via TBMB) | < 500

Same assay, conditions: human CAIX, competition FP, n = 2; read-out: Ki

Row | Ki [nM] | SMILES
2 | > 10000 | CC(C)[C@@H]1NC(=O)[C@H](Cc2c[nH]c3ccccc23)NC(=O)[C@@H]2CSCC(=O)N3Cc4cccc(c4)CN(Cc4cccc(c4)CN(Cc4cccc(c4)C3)C(=O)CSC[C@H](NC(=O)[C@H](C)NC(=O)CN(C)C(=O)CN(C)C(=O)CN(C)C(=O)CN(C)C(=O)CN(C)C(=O)CN(C)C(=O)CN(C)C(=O)CN(C)C(=O)CN(C)C(=O)CN(C)C(=O)CCN)C(=O)N[C@@H]([C@@H](C)O)C(=O)N[C@@H](CCC(=O)O)C(=O)N2)C(=O)CSC[C@@H](C(N)=O)NC(=O)[C@@H]2CCCN2C(=O)[C@H](C(C)C)NC(=O)[C@H](Cc2c[nH]c3ccccc23)NC(=O)CNC(=O)[C@H](CC(=O)O)NC1=O [I-23]
3 | 500 to 1000 | CC(=O)N[C@H]1Cc2ccc(cc2)OCc2cc3cc(c2)CSC[C@H](NC(=O)[C@H](CCC(=O)O)NC(=O)[C@H]([C@@H](C)O)NC1=O)C(=O)N[C@@H](Cc1c[nH]c2ccccc12)C(=O)N[C@@H](C(C)C)C(=O)N[C@@H](CC(=O)O)C(=O)NCC(=O)N[C@@H](Cc1c[nH]c2ccccc12)C(=O)N[C@@H](C(C)C)C(=O)N1CCC[C@H]1C(=O)N[C@H](C(N)=O)Cc1ccc(cc1)OC3 [I-109] (Ac-YTECWVDGWVPY-NH2; linker 1-4-12 via TBMB)

Row | SMILES | Ki [nM]
4 | CC(=O)N[C@H]1CSCc2ccc(cc2)-c2nc3nc(n2)-c2ccc(cc2)CSC[C@H](NC(=O)[C@H](CCC(=O)O)NC(=O)[C@H]([C@@H](C)O)NC1=O)C(=O)N[C@@H](Cc1c[nH]c2ccccc12)C(=O)N[C@@H](C(C)C)C(=O)N[C@@H](CC(=O)O)C(=O)NCC(=O)N[C@@H](Cc1c[nH]c2ccccc12)C(=O)N[C@@H](C(C)C)C(=O)N1CCC[C@H]1C(=O)N[C@H](C(N)=O)CSCc1ccc-3cc1 [I-98] (Ac-CTECWVDGWVPC-NH2; linker 1-4-12 via X1) | < 500

Molecular target: MT1-MMP hemopexin domain (Homo sapiens, UniProt P50281)
Assay: MT1-MMP Direct Binding Fluorescence Polarization (Anisotropy) Assay
Settings: MT1-MMP direct binding FP, n=2
Method: Direct Binding Fluorescence Polarization or Anisotropy Assays are performed by titrating a constant concentration of fluorescent tracer (here, the fluoresceinated bicyclic peptide to be studied) with its binding partner (here, the MT1-MMP hemopexin domain). As the concentration of binding partner increases during the titration, the polarization signal changes in proportion to the fraction of bound and unbound material. This allows determination of […] (Kd) quantitatively. Assay data can be fit using standard ligand binding equations.
Typically, concentrations of the tracer are ideally well below the Kd of the tracer:titrant pair, and concentrations chosen are usually at ˜1 nM or less. The titrant (binding partner) concentration is varied from 0.1 nM up to typically 5 μM. The range is chosen such that the maximum change in fluorescent polarization can be observed. Buffers employed are phosphate buffered saline in the presence of 0.01% Tween. Experiments were run in black 384 well low-bind/low volume plates (Corning 3820), and the fluorescent polarization signal was measured using a BMG Pherastar FS plate reader. Fluorescent tracers referred to in the text are bicyclic peptides that have been fluoresceinated using 5,6-carboxyfluorescein. Fluoresceination may be performed on the N-terminal amino group of the peptide, which is separated from the bicycle core sequence by a sarcosine spacer (usually Sar5). This can be done during Fmoc solid phase synthesis or post-synthetically (after cyclization with the molecular scaffold reagent and purification) if the N-terminal amino group is unique to the peptide. Fluoresceination can also be performed on the C-terminus, usually on a Lysine introduced as the first C-terminal residue, which is then separated from the bicycle core sequence by a sarcosine spacer (usually Sar6). Thus, N-terminal tracers can have a molecular format described as Fluo-Gly-Sar5-A(BicycleCoreSequence), and (BicycleCoreSequence)-A-Sar6-K(Fluo) for a C-terminally fluoresceinated construct.

Row | Ki [nM] | SMILES
5 | < 500 | C[C@H](N)C(=O)N[C@H]1CSCc2ccc(cc2)CN2Cc3ccc(cc3)CSC[C@@H](C(N)=O)CC(=O)[C@H](C(C)(C)C)NC(=O)[C@H](CC(=O)O)NC(=O)[C@H](Cc3ccc(O)cc3)NC(=O)[C@H](Cc3ccccc3)NC(=O)[C@H](CC(=O)O)NC(=O)[C@H](CCC(=O)O)NC(=O)[C@H](CSCc3ccc(cc3)C2)NC(=O)[C@@H](C)NC(=O)[C@H](Cc2cccc3ccccc23)NC(=O)[C@H](CCC(=O)O)NC(=O)[C@H](CC(N)=O)NC(=O)[C@@H](C)NC1=O [I-96] (H-AC[dA]NE[1Nal][dA]CEDFYD; linker 2-8-C via X12)
6 | < 500 | C[C@H](N)C(=O)N[C@H]1CSCc2ccc(cc2)-c2nc3nc(n2)-c2ccc(cc2)CSC[C@H](NC(=O)[C@@H](C)NC(=O)[C@H](Cc2cccc4ccccc24)NC(=O)[C@H](CCC(=O)O)NC(=O)[C@H](CC(N)=O)NC(=O)[C@@H](C)NC1=O)C(=O)N[C@@H](CCC(=O)O)C(=O)N[C@@H](CC(=O)O)C(=O)N[C@@H](Cc1ccccc1)C(=O)N[C@@H](Cc1ccc(O)cc1)C(=O)N[C@@H](CC(=O)O)C(=O)N[C@@H](C(C)(C)C)C(=O)C[C@H](C(N)=O)CSCc1ccc-3cc1 [I-90] (H-AC[dA]NE[1Nal][dA]CEDFYD; linker 2-8-C via X14)
7 | < 500 | C[C@H](N)C(=O)N[C@H]1CSCc2ccc(cc2)C(=O)N2CN3CN(C2)C(=O)c2ccc(cc2)CSC[C@H](NC(=O)[C@@H](C)NC(=O)[C@H](Cc2cccc4ccccc24)NC(=O)[C@H](CCC(=O)O)NC(=O)[C@H](CC(N)=O)NC(=O)[C@@H](C)NC1=O)C(=O)N[C@@H](CCC(=O)O)C(=O)N[C@@H](CC(=O)O)C(=O)N[C@@H](Cc1ccccc1)C(=O)N[C@@H](Cc1ccc(O)cc1)C(=O)N[C@@H](CC(=O)O)C(=O)N[C@@H](C(C)(C)C)C(=O)C[C@H](C(N)=O)CSCc1ccc(cc1)C3=O [I-93] (H-AC[dA]NE[1Nal][dA]CEDFYD[X3]; linker 2-8-C via X4)
8 | ≥ 10000 | C[C@H](N)C(=O)N[C@H]1CSCC(=O)N2Cc3cccc(c3)CN3Cc4cccc(c4)CN(Cc4cccc(c4)C2)C(=O)CSC[C@H](NC(=O)[C@@H](C)NC(=O)[C@H](Cc2cccc4ccccc24)NC(=O)[C@H](CCC(=O)O)NC(=O)[C@H](CC(N)=O)NC(=O)[C@@H](C)NC1=O)C(=O)N[C@@H](CCC(=O)O)C(=O)N[C@@H](CC(=O)O)C(=O)N[C@@H](Cc1ccccc1)C(=O)N[C@@H](Cc1ccc(O)cc1)C(=O)N[C@@H](CC(=O)O)C(=O)N[C@@H](C(C)(C)C)C(=O)N[C@H](C(N)=O)CSCC3=O [I-44] (H-AC[dA]NE[1Nal][dA]CEDFYD[Tle]C-NH2; linker 2-8-15 via X6)

Row | SMILES | Ki [nM]
9 | C[C@H](N)C(=O)N[C@H]1CSCC(=O)N2CCC(CC2)N2CCN(CC2)c2nc3nc(n2)N2CCN(CC2)C2CCN(CC2)C(=O)CSC[C@H](NC(=O)[C@@H](C)NC(=O)[C@H](Cc2cccc4ccccc24)NC(=O)[C@H](CCC(=O)O)NC(=O)[C@H](CC(N)=O)NC(=O)[C@@H](C)NC1=O)C(=O)N[C@@H](CCC(=O)O)C(=O)N[C@@H](CC(=O)O)C(=O)N[C@@H](Cc1ccccc1)C(=O)N[C@@H](Cc1ccc(O)cc1)C(=O)N[C@@H](CC(=O)O)C(=O)N[C@@H](C(C)(C)C)C(=O)C[C@H](C(N)=O)CSCC(=O)N1CCC(CC1)N1CCN3CC1 [I-91] (H-AC[dA]NE[1Nal][dA]CEDFYD[X9]; linker 2-8-C via X10) | < 500
10 | C[C@H](N)C(=O)N[C@H]1CSCC(=O)N2CCN(CC2)c2ccc(cc2)-c2nc3nc(n2)-c2ccc(cc2)N2CCN(CC2)C(=O)CSC[C@H](NC(=O)[C@@H](C)NC(=O)[C@H](Cc2cccc4ccccc24)NC(=O)[C@H](CCC(=O)O)NC(=O)[C@H](CC(N)=O)NC(=O)[C@@H](C)NC1=O)C(=O)N[C@@H](CCC(=O)O)C(=O)N[C@@H](CC(=O)O)C(=O)N[C@@H](Cc1ccccc1)C(=O)N[C@@H](Cc1ccc(O)cc1)C(=O)N[C@@H](CC(=O)O)C(=O)N[C@@H](C(C)(C)C)C(=O)N[C@H](C(N)=O)CSCC(=O)N1CCN(CC1)c1ccc-3cc1 [I-94] (H-AC[dA]NE[1Nal][dA]CEDFYD[Tle]C-NH2; linker 2-8-15 via X11) | < 500
